In brackets after ≈: the same amount, converted by molar mass. Like-named read-outs stand apart in the source and are kept apart here.
What was measured:
Format in all cases: cell-based
[1] = test system: Fusarium oxysporum (Fo); test: Minimum inhibitory concentration (MIC) in malt yeast agar, Fusarium oxysporum
Summary of the method: (§1)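 Growth is scored at 30 °C after 72 h for fungi and 48 h for yeast on malt yeast agar (pH 5.5) containing compound at final levels from 500 down to zero ppm. Organisms are grown 7 days at 30 °C, suspended in saline with octylphenoxy polyethoxy ethanol, and diluted 1:9 before replicator inoculation.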

[2] = test system: Saccharomyces cerevisiae (Sc); test: Minimum inhibitory concentration (MIC) in malt yeast agar, Saccharomyces cerevisiae; details: pH 5.5, malt yeast agar, 30° C., 48 hours for yeast, read-out: Minimum Inhibitory Concentration, SC
Summary of the method: as §1

[3] = test system: Escherichia coli (Ec); test: Minimum inhibitory concentration (MIC) in nutrient agar, Escherichia coli
Summary of the method: (§2)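 Test compound, as a 1% acetone–water solution, was mixed into molten nutrient agar (pH 6.8 or pH 8.2) at 48° C to final levels of 500 down to 1.0 ppm. Plates were dried 24 h, spot-inoculated with 10^8 CFU/mL suspensions of 24-h cultures, and incubated 48 h at 30° C. MIC was the lowest level preventing growth.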

[4] = test system: Aureobasidium pullulan (Ap); test: Minimum inhibitory concentration (MIC) in malt yeast agar, Aureobasidium pullulan
Summary of the method: as §1

[5] = test system: Staphylococcus aureus (Sa); test: Minimum inhibitory concentration (MIC) in nutrient agar, Staphylococcus aureus
Summary of the method: as §2

[6] = test system: Penicillium chrysogenum (Pc); test: Minimum inhibitory concentration (MIC) in malt yeast agar, Penicillium chrysogenum
Summary of the method: as §1

[7] = test system: Pseudomonas aeruginosa (Pa); test: Minimum inhibitory concentration (MIC) in nutrient agar, Pseudomonas aeruginosa; details: 30° C., 48 hours, read-out: Minimum Inhibitory Concentration, Pa
Summary of the method: as §2

[8] = test system: Klebsiella pneumoniae (Kp); test: Minimum inhibitory concentration (MIC) in nutrient agar, Klebsiella pneumoniae
Summary of the method: as §2

[9] = test system: Candida albicans (Ca); test: Minimum inhibitory concentration (MIC) in malt yeast agar, Candida albicans
Summary of the method: as §1

[10] = test system: Proteus vulgaris (Pv); test: Minimum inhibitory concentration (MIC) in nutrient agar, Proteus vulgaris; details: 48 h
Summary of the method: as §2

[11] = test system: Pseudomonas aeruginosa (PRD-10); test: Minimum inhibitory concentration (MIC) in nutrient agar, Pseudomonas aeruginosa PRD-10; details: 48 h
Summary of the method: as §2

[12] = test system: Bacillus subtilis (Bs); test: Minimum inhibitory concentration (MIC) in nutrient agar, Bacillus subtilis
Summary of the method: as §2

[13] = test system: Trichoderma viride (Tv); test: Minimum inhibitory concentration (MIC) in malt yeast agar, Trichoderma viride
Summary of the method: as §1

[14] = test system: Salmonella choleraesuis (Se); test: Minimum inhibitory concentration (MIC) in nutrient agar, Salmonella choleraesuis; details: Salmonella enterica, 48 h
Summary of the method: as §2

[15] = test system: Enterobacter aerogenes (Ea); test: Minimum inhibitory concentration (MIC) in nutrient agar, Enterobacter aerogenes; details: Klebsiella aerogenes, 48 h
Summary of the method: as §2

[16] = test system: Aspergillus niger (An); test: Minimum inhibitory concentration (MIC) in malt yeast agar, Aspergillus niger
Summary of the method: as §1

[17] = pH 5.5, malt yeast agar, 30° C., 72 hours for fungi, read-out: Minimum Inhibitory Concentration, Fo
[18] = 48 h, pH 6.8, read-out: Minimum Inhibitory Concentration, Ec
[19] = 48 h, pH 8.2, read-out: Minimum Inhibitory Concentration, Ec
[20] = pH 6.8, nutrient agar, 30° C., 48 hours, read-out: Minimum Inhibitory Concentration, Sa
[21] = pH 8.2, nutrient agar, 30° C., 48 hours, read-out: Minimum Inhibitory Concentration, Sa
[22] = 48 h, pH 8.2, read-out: Minimum Inhibitory Concentration, Kp
[23] = pH 6.8, nutrient agar, 30° C., 48 hours, read-out: Minimum Inhibitory Concentration, Kp
[24] = 48 h, pH 5.5, read-out: Minimum Inhibitory Concentration, Ca
[25] = pH 6.8, read-out: Minimum Inhibitory Concentration, Pv
[26] = pH 8.2, read-out: Minimum Inhibitory Concentration, Pv
[27] = pH 6.8, read-out: Minimum Inhibitory Concentration, PRD
[28] = pH 8.2, read-out: Minimum Inhibitory Concentration, PRD
[29] = pH 6.8, nutrient agar, 30° C., 48 hours, read-out: Minimum Inhibitory Concentration, Bs
[30] = pH 8.2, nutrient agar, 30° C., 48 hours, read-out: Minimum Inhibitory Concentration, Bs
[31] = pH 5.5, malt yeast agar, 30° C., 72 hours for fungi, read-out: Minimum Inhibitory Concentration, Tv
[32] = pH 6.8, read-out: Minimum Inhibitory Concentration, SC
[33] = pH 8.2, read-out: Minimum Inhibitory Concentration, SC
[34] = pH 6.8, read-out: Minimum Inhibitory Concentration, Ea
[35] = pH 8.2, read-out: Minimum Inhibitory Concentration, Ea
[36] = pH 5.5, malt yeast agar, 30° C., 72 hours for fungi, read-out: Minimum Inhibitory Concentration, An
[37] = pH 5.5, malt yeast agar, 30° C., read-out: Minimum Inhibitory Concentration, Ap
[38] = 48 h, pH 8.2, read-out: Minimum Inhibitory Concentration, Sa
[39] = pH 5.5, malt yeast agar, 30° C., 72 hours for fungi, read-out: Minimum Inhibitory Concentration, PC
[40] = 48 h, pH 8.2, read-out: Minimum Inhibitory Concentration, Bs
[41] = 72 h, pH 5.5, read-out: Minimum Inhibitory Concentration, Fo
[42] = pH 8.2, nutrient agar, 30° C., 48 hours, read-out: Minimum Inhibitory Concentration, Ec

SMILES | MIC [2] [µg/mL] | MIC [3, 18] [µg/mL] | MIC [5, 20] [µg/mL] | MIC ([7]; pH 6.8, nutrient agar) [µg/mL] | MIC ([7]; pH 8.2, nutrient agar) [µg/mL] | MIC [8, 22] [µg/mL] | MIC [8, 23] [µg/mL] | MIC [9, 24] [µg/mL] | MIC [10, 25] [µg/mL] | MIC [10, 26] [µg/mL] | MIC [11, 27] [µg/mL] | MIC [11, 28] [µg/mL] | MIC [12, 29] [µg/mL] | MIC [13, 31] [µg/mL] | MIC [14, 32] [µg/mL] | MIC [14, 33] [µg/mL] | MIC [15, 34] [µg/mL] | MIC [15, 35] [µg/mL] | MIC [16, 36] [µg/mL] | MIC [4, 37] [µg/mL] | further results
N#CSCSc1nsnc1-c1cccc(Cl)c1 [Example XIX, 4-(3-Chlorophenyl)-3-thiocyanatomethylthio-1,2,5-thiadiazole] | 1 (≈ 3.34 µM) | 500 (≈ 1670 µM) | 9 (≈ 30 µM) | 500 (≈ 1670 µM) | > 500 | > 500 | 500 (≈ 1670 µM) | 25 (≈ 83.4 µM) | 500 (≈ 1670 µM) | > 500 | 500 (≈ 1670 µM) | > 500 | 9 (≈ 30 µM) | > 500 | 500 (≈ 1670 µM) | > 500 | 500 (≈ 1670 µM) | > 500 | 5 (≈ 16.7 µM) |  | MIC [1, 17]: 500 µg/mL (≈ 1670 µM); MIC [3, 19]: 500 µg/mL (≈ 1670 µM); MIC ([4]; pH 5.5, read-out: Minimum Inhibitory Concentration, Ap): 2.5 µg/mL (≈ 8.34 µM); MIC [5, 21]: 9 µg/mL (≈ 30 µM); MIC ([6]; 72 h, pH 5.5, read-out: Minimum Inhibitory Concentration, PC): 2.5 µg/mL (≈ 8.34 µM); MIC [12, 30]: 9 µg/mL (≈ 30 µM)
N#CSCSc1nsnc1-c1ccc(Br)cc1 [Example XVII, 4-(4-Bromophenyl)-3-thiocyanatomethylthio-1,2,5-thiadiazole] | 9 (≈ 26.1 µM) | > 500 | > 500 | > 500 | > 500 | > 500 | > 500 |  | > 500 | > 500 | > 500 | > 500 | 9 (≈ 26.1 µM) | 500 (≈ 1450 µM) | > 500 | > 500 | > 500 | > 500 |  | 9 (≈ 26.1 µM) | MIC [1, 17]: 250 µg/mL (≈ 726 µM); MIC [3, 19]: > 500 µg/mL; MIC [5, 38]: > 500 µg/mL; MIC [6, 39]: 9 µg/mL (≈ 26.1 µM); MIC ([9]; pH 5.5, malt yeast agar, 30° C., 48 hours for yeast, read-out: Minimum Inhibitory Concentration, Ca): 500 µg/mL (≈ 1450 µM); MIC [12, 40]: 25 µg/mL (≈ 72.6 µM); MIC ([16]; 72 h, pH 5.5, read-out: Minimum Inhibitory Concentration, An): 25 µg/mL (≈ 72.6 µM)
N#CSCSc1nsnc1-c1ccc(Cl)cc1 [Example XVIII, 4-(4-Chlorophenyl)-3-thiocyanatomethylthio-1,2,5-thiadiazole] | 9 (≈ 30 µM) | 500 (≈ 1670 µM) | 500 (≈ 1670 µM) | 500 (≈ 1670 µM) | > 500 | > 500 | 500 (≈ 1670 µM) | 250 (≈ 834 µM) | 500 (≈ 1670 µM) | > 500 | 500 (≈ 1670 µM) | > 500 |  |  | 500 (≈ 1670 µM) | > 500 | 500 (≈ 1670 µM) | > 500 | 9 (≈ 30 µM) | 9 (≈ 30 µM) | MIC [1, 41]: 100 µg/mL (≈ 334 µM); MIC [3, 42]: 250 µg/mL (≈ 834 µM); MIC [5, 38]: > 500 µg/mL; MIC [6, 39]: 9 µg/mL (≈ 30 µM); MIC ([12]; 48 h, pH 6.8, read-out: Minimum Inhibitory Concentration, Bs): 500 µg/mL (≈ 1670 µM); MIC [12, 40]: 500 µg/mL (≈ 1670 µM); MIC ([13]; 72 h, pH 5.5, read-out: Minimum Inhibitory Concentration, Tv): 250 µg/mL (≈ 834 µM)
N#CSCSc1nsnc1-c1ccccc1Cl [Example XX, 4-(2-Chlorophenyl)-3-thiocyanatomethylthio-1,2,5-thiadiazole] | 9 (≈ 30 µM) | 500 (≈ 1670 µM) | 9 (≈ 30 µM) | 500 (≈ 1670 µM) | > 500 | > 500 | 500 (≈ 1670 µM) | 250 (≈ 834 µM) | 500 (≈ 1670 µM) | > 500 | 500 (≈ 1670 µM) | > 500 | 9 (≈ 30 µM) | > 500 | 500 (≈ 1670 µM) | > 500 | 500 (≈ 1670 µM) | > 500 | 9 (≈ 30 µM) | 9 (≈ 30 µM) | MIC [1, 41]: 25 µg/mL (≈ 83.4 µM); MIC [3, 42]: 250 µg/mL (≈ 834 µM); MIC [5, 21]: 9 µg/mL (≈ 30 µM); MIC [6, 39]: 9 µg/mL (≈ 30 µM); MIC [12, 30]: 9 µg/mL (≈ 30 µM)

From patent US5488060A, “Substituted thiadiazoles, compositions containing them and their use as antimicrobial and marine antifouling agents” (The Dow Chemical Company, priority 1994, dated 1996)
